≈ marks a conversion by molar mass, not a printed value. Where “and” joins values, the source holds several entries; their conditions need not be identical. Equal values may be shown once. Where a name gives a salt, the structure may show the parent alone. Read-outs that look alike come from different tables or passages of the source. Marks after values point to notes of the source that are not given here.
Experiments:
[1] = modified Microtox Basic Solid Phase Test (bioluminescence inhibition); type: cell-based, Aliivibrio fischeri; settings: Aliivibrio fischeri, Toxicity Category (Based on EC50, 30 min)
Description: (§1) The bioluminescent marine bacterium Aliivibrio fischeri (strain NRRL B-11177) was used to evaluate the acute toxicity of individual excipients, as well as the API–excipient and excipient–excipient mixtures (Figure 1). The inhibition of bioluminescence was measured using the Microtox® Model 500 Analyzer (Modern Water Inc., New Castle, DE, USA). The modified Microtox® Basic Solid Phase Test protocol was applied, which was described in detail in our previous work; a scheme illustrating the course of the ecotoxicological study is shown in Figure 4. The bioluminescence inhibition of A. fischeri was measured after 5, 15, and 30 min of exposure of the bacterium to each sample and then compared with the light output of a control sample. […] Software™.

[2] = tested on: Aliivibrio fischeri (strain NRRL B-11177); test: as above; type: cell-based; settings: for EC50: Aliivibrio fischeri
Description: as §1

[3] = pH values of samples used in Microtox test; type: physicochemical; settings: sample used in Microtox test
[4] = tested on: Aliivibrio fischeri (strain NRRL B-11177); set-up: method as in earlier work; settings: ref [10] (Turek et al., J. Haz. Mat. 399 (2020) 122839), cited from earlier work; for EC50 5 min: 5 min of incubation
[5] = tested on: various aquatic organisms; settings: ref [16, 17, 18, 19, 20]; cited from earlier work
[6] = NRRLB11177, 5 min, read-out: EC50 5 min, 5 min of exposure, 95% confidence interval in brackets
[7] = NRRLB11177, 0.25 h, 15 min of exposure, 95% confidence interval in brackets, read-out: EC50 15 min
[8] = NRRLB11177, 0.5 h, 30 min of exposure, 95% confidence interval in brackets, read-out: EC50 30 min
[9] = 5 min of exposure, 95% confidence interval in brackets
[10] = 15 min of exposure, 95% confidence interval in brackets
[11] = 30 min of exposure, 95% confidence interval in brackets

| Molecule | EC50 at 30 min [1] | EC50 [2, 6] | EC50 [2, 7] | pH [3] | EC50 [2, 8] | EC50 30 min [2, 11] | EC50 5 min [4] | EC50 15 min [4] | also measured |
| --- | --- | --- | --- | --- | --- | --- | --- | --- | --- |
| OC[C@H]1O[C@@H](O[C@H]2[C@H](O)[C@@H](O)[C@@H](O)O[C@@H]2CO)[C@H](O)[C@@H](O)[C@H]1O [Lactose monohydrate] | > 100 µg/mL | 11700 µg/mL | 14000 µg/mL | 5.113 | – | – | – | – | EC50 ([2]; NRRLB11177, 0.5 h, 30 min of exposure, EC50 calculated from extrapolated data, read-out: EC50 30 min): 16400 µg/mL |
| OC[C@@H](O)[C@@H](O)[C@H](O)[C@H](O)CO [Mannitol] | > 100 µg/mL | 12600 µg/mL (≈ 69000 µM) | 5400 µg/mL (≈ 29700 µM) | 6.390 | 4250 µg/mL (≈ 23300 µM) | – | – | – | – |
| Magnesium carbonate (heavy) | – | – | – | 10.257 | – | 65.60 (44.19–97.37) 0.9738 mg/L | – | – | EC50 5 min [2, 9]: 109.8 (55.61–216.6) 0.9360 mg/L; EC50 15 min [2, 10]: 86.42 (58.99–126.6) 0.9678 mg/L; EC50 30 min ([2]; 30 min of exposure, 95% confidence interval in brackets, listed as magnesium carbonate): 10 to 100 mg/L; Toxicity Category (Based on EC50, 30 min) ([2]; GHS acute toxicity categories [11]): III ((III) harmful, 10 < EC50 < 100 mg/L) |
| CCCCC(=O)N(Cc1ccc(-c2ccccc2-c2nnn[nH]2)cc1)[C@H](C(=O)O)C(C)C [VAL, Valsartan, reference compound] | – | – | – | 4.970 | 150 µg/mL (≈ 346 µM) | – | 143.20 µg/mL (≈ 329 µM) | 234.83 µg/mL (≈ 539 µM) | – |
| CCCCCCCCCCCCOS(=O)(=O)O [Sodium lauryl sulfate (SLS), Sodium lauryl sulfate] | < 1 µg/mL | 1.37 µg/mL | 0.8 µg/mL | 6.779 | < 1 µg/mL | 0.5544 (0.1138–2.702) 0.6931 mg/L | – | – | LC50 (lethal concentration) [5]: 1 to 13.9 µg/mL |
| CCCCCCCCCCCCCCCCCCOC(=O)/C=C/C(=O)[O-].[Na+] [Sodium stearyl fumarate] | – | – | – | – | – | – | – | – | EC50 5 min ([2]; 5 min, value calculated using two points, 95% confidence interval and R^2 could not be determined): 56,456 ^[b] mg/L; EC50 15 min ([2]; 15 min of exposure, EC50 calculated from extrapolated data): 12,815 ^[a] (38.84–4,457,999) 0.9221 mg/L; EC50 30 min ([2]; 30 min of exposure, EC50 calculated from extrapolated data): 80,534 ^[a] (2479–2,616,211) 0.8896 mg/L |
| CCCCc1nc(Cl)c(CO)n1Cc1ccc(-c2ccccc2-c2nn[nH]n2)cc1 [LOS-K, Losartan potassium, reference compound] | – | – | – | 7.750 | 277 µg/mL | – | 583.88 µg/mL | 659.02 µg/mL | – |
| CNC[C@H](O)[C@@H](O)[C@H](O)[C@H](O)CO [Meglumine] | 10 to 100 µg/mL | 28.6 µg/mL | 19.7 µg/mL | 10.830 and ~11 | 10 to 100 µg/mL | 18.05 (7.237–45.02) 0.7516 mg/L | – | – | – |
| OC[C@@H](O)[C@@H](O)[C@H](O)[C@@H](O)CO [Sorbitol] | > 100 µg/mL | – | – | 7.446 | – | Non-toxic in tested concentration, hormesis | – | – | EC50 5 min [2, 9]: Non-toxic in tested concentration, hormesis; EC50 15 min [2, 10]: Non-toxic in tested concentration, hormesis; EC50 30 min ([2]; 30 min of exposure, 95% confidence interval in brackets, listed as sorbitol): completely non-toxic at the tested concentration |
| CCCc1nc2c(C)cc(-c3nc4ccccc4n3C)cc2n1Cc1ccc(-c2ccccc2C(=O)O)cc1 [TEL, Telmisartan, reference compound] | – | – | – | 8.036 | 77.3 µg/mL (≈ 150 µM) | – | 196.52 µg/mL (≈ 382 µM) | 99.70 µg/mL (≈ 194 µM) | – |
